Where two headings read alike, the source gives them in different places.
Tests used:
SKOV3 = test: Microculture tetrazolium assay; assay type: cell-based; conditions: Homo sapiens, SK-OV-3, SKOV3; read-out: IC50
SKVLB = test: Microculture tetrazolium assay; assay type: cell-based; conditions: for VLB/OV3: IC50 ratio SKVLB/SKOV3; for IC50: SKVLB, read-out: IC50
T47D = test: Microculture tetrazolium assay; assay type: cell-based; conditions: Homo sapiens, read-out: IC50
LOX = test: Microculture tetrazolium assay; assay type: cell-based
HT29 = test: Microculture tetrazolium assay; assay type: cell-based; conditions: Homo sapiens, HT-29, HT29; read-out: IC50
Leukemia = test: NCI assay, average per cancer type; conditions: for CC50: 48 h, read-out: Average LOG10 LC50; for GI50: read-out: Average LOG10 GI50
NSC Lung = test: NCI assay, average per cancer type; conditions: Homo sapiens; for CC50: 48 h, read-out: Average LOG10 LC50; for GI50: read-out: Average LOG10 GI50
SC Lung = test: NCI assay, average per cancer type; conditions: Homo sapiens; for CC50: 48 h, read-out: Average LOG10 LC50; for GI50: read-out: Average LOG10 GI50
Colon = test: NCI assay, average per cancer type; conditions: Homo sapiens; for CC50: 48 h, read-out: Average LOG10 LC50; for GI50: read-out: Average LOG10 GI50
CNS = test: NCI assay, average per cancer type; conditions: Homo sapiens; for CC50: 48 h, read-out: Average LOG10 LC50; for GI50: read-out: Average LOG10 GI50
Melanoma = test: NCI assay, average per cancer type; conditions: Homo sapiens; for GI50: read-out: Average LOG10 GI50; for CC50: read-out: Average LOG10 LC50
Ovarian = test: NCI assay, average per cancer type; conditions: Homo sapiens; for CC50: 48 h, read-out: Average LOG10 LC50; for GI50: read-out: Average LOG10 GI50
Renal = test: NCI assay, average per cancer type; conditions: Homo sapiens; for CC50: 48 h, read-out: Average LOG10 LC50; for GI50: read-out: Average LOG10 GI50
solid tumors = test: NCI assay, mean potency in solid tumors; conditions: Homo sapiens; for GI50: read-out: Average LOG10 GI50, Mean Potency in solid tumors; for CC50: 48 h, read-out: Average LOG10 LC50, Mean Potency in solid tumors
tumor cell lines = test: NCI sulforhodamine B assay, all cell lines; conditions: for CC50 / IC100 / GI50: Homo sapiens; for CC50 / IC100: 48 h; for CC50: read-out: Log10 LC50, Mean / MG-MID, all cell lines (converted); for IC100: read-out: Log10 TGI, Mean / MG-MID, all cell lines; for GI50: read-out: Log10 GI50, Mean / MG-MID, all cell lines (converted)

| SMILES | IC50 (SKOV3) [µM] | IC50 (SKVLB) [µM] | IC50 (T47D) [µM] | IC50 (HT29) [µM] | CC50 (Leukemia) [µM] | GI50 (Leukemia) [µM] | CC50 (NSC Lung) [µM] | GI50 (NSC Lung) [µM] | CC50 (SC Lung) [µM] | GI50 (SC Lung) [µM] | CC50 (Colon) [µM] | GI50 (Colon) [µM] | CC50 (CNS) [µM] | GI50 (CNS) [µM] | CC50 (Ovarian) [µM] | GI50 (Ovarian) [µM] | CC50 (Renal) [µM] | GI50 (Renal) [µM] | GI50 (solid tumors) [µM] | CC50 (tumor cell lines) [µM] | other results |
| --- | --- | --- | --- | --- | --- | --- | --- | --- | --- | --- | --- | --- | --- | --- | --- | --- | --- | --- | --- | --- | --- |
| CCOC(=O)[C@@H]1CC2=C(C(=O)c3c(cc4ccccc4c3OC(C)=O)C2=O)[C@@H](O)O1 (relative stereo) [BCH-657, Ethyl[1-hydroxy-11-acetoxy-5,12-dioxo-3,4-5,12-tetrahydroanthraceno(2,3-C)pyran-3-yl]formate] | 6.8 | 6.75 | 13.1 | 2.28 | > 100 | 0.437 | 11.5 | 1.12 | > 100 | 1.26 | 13.5 | 0.794 | 13.2 | 1.86 | 17.4 | 1.7 | 12 | 1.32 | 1.29 | 26.3 | VLB/OV3 (SKVLB): 0.99; IC50 (LOX): 9.3 µM; GI50 (Melanoma): 1.35 µM; antiproliferative and cytotoxic activity in words (tumor cell lines): strong antiproliferative (GI50) and potent cytotoxic (LC50) activities; IC100 (tumor cell lines): 4.07 µM; GI50 (tumor cell lines): 1.17 µM |
| CCOC(=O)C1Cc2c(O)c3c(c(O)c2CO1)C(=O)c1ccccc1C3=O (stereo not drawn) [BCH-650] | 100 | 100 | 100 | 91.1 | > 100 | 61.7 | > 100 | > 100 | > 100 | > 100 | > 100 | > 100 | > 100 | 45.7 | > 100 | > 100 | > 100 | 52.5 | 52.5 | 100 | IC50 (LOX; read-out: IC50): 100 µM; GI50 (Melanoma; 48 h): > 100 µM; CC50 (Melanoma; 48 h): > 100 µM; CC50 (solid tumors): > 100 µM; IC100 (tumor cell lines): 100 µM; GI50 (tumor cell lines): 79.4 µM |
| COC(=O)[C@@H]1CC2=C(C(=O)c3cc4ccccc4cc3C2=O)[C@@H](O[C@H]2C[C@H](NC(=O)C(F)(F)F)[C@H](O)[C@H](C)O2)O1 [BCH-671] | 4.69 | 6.19 | 2.86 | 4.23 | > 100 | 1.82 | 30.2 | 4.57 | 55 | 2.51 | 15.8 | 1.91 | 42.7 | 4.27 | 33.9 | 3.63 | 23.4 | 2.82 | 2.95 | 29.5 | VLB/OV3 (SKVLB): 1.32; IC50 (LOX; read-out: IC50): 2.61 µM; CC50 (Melanoma; 48 h): 21.4 µM; GI50 (Melanoma): 2.09 µM; CC50 (solid tumors): 29.5 µM; IC100 (tumor cell lines): 7.76 µM; GI50 (tumor cell lines): 2.88 µM |
| CC(=O)C1Cc2c(O)c3c(c(O)c2CO1)C(=O)c1ccccc1C3=O (stereo not drawn) [BCH-688, Methyl-(5,12-dihydroxy-6,11-dioxo-3,4,6,11-tetrahydroanthraceno-[2,3-c]pyran-3-yl)ketone] | 100 | 100 | 100 | 100 | > 100 | 36.3 | > 100 | > 100 | > 100 | > 100 | > 100 | > 100 | > 100 | 53.7 | > 100 | 75.9 | > 100 | > 100 | 52.5 | 100 | IC50 (LOX; read-out: IC50): 100 µM; CC50 (Melanoma; 48 h): > 100 µM; GI50 (Melanoma): > 100 µM; CC50 (solid tumors): > 100 µM; IC100 (tumor cell lines): 97.7 µM; GI50 (tumor cell lines): 75.9 µM |
